Where “and” joins values, the source holds several entries; their conditions need not be identical. Equal values may be shown once.
Conditions: Liquid, Vibrating tube method

CCCCCC(=O)OCC(COC(=O)CCCCC)(COC(=O)CCCCC)COC(=O)CCCCC [pentaerythritol tetrahexanoate]
Conditions	mass density
323.14 K, 9872.1 kPa	979.5 kg/m3
323.14 K, 9877.7 kPa	979.4 kg/m3
323.14 K, 9882.8 kPa	979.5 kg/m3
323.14 K, 9890.7 kPa	979.4 kg/m3
323.14 K, 10279 kPa	979.8 kg/m3
323.14 K, 10299 kPa	979.7 kg/m3
323.14 K, 10325 kPa	979.8 kg/m3
323.14 K, 10354 kPa	979.8 kg/m3
323.14 K, 10377 kPa	979.8 kg/m3
323.14 K, 10409 kPa	979.8 kg/m3
323.14 K, 10437 kPa	979.7 kg/m3
323.14 K, 10641 kPa	980 kg/m3
323.14 K, 10798 kPa	980.1 kg/m3
323.14 K, 10825 kPa	980 kg/m3
323.14 K, 10850 kPa	980 kg/m3
323.14 K, 10879 kPa	980.1 kg/m3
323.14 K, 10908 kPa	980.2 kg/m3
323.14 K, 10930 kPa	980.1 kg/m3
323.14 K, 11644 kPa	980.6 kg/m3
323.14 K, 11671 kPa	980.7 kg/m3
323.14 K, 11694 kPa	980.7 kg/m3
323.14 K, 11721 kPa	980.6 kg/m3
323.14 K, 11748 kPa	980.6 kg/m3
323.14 K, 11771 kPa	980.7 kg/m3
323.14 K, 11798 kPa	980.7 kg/m3
323.14 K, 11821 kPa	980.9 kg/m3
323.14 K, 11872 kPa	980.8 kg/m3
323.14 K, 13057 kPa	981.6 kg/m3
323.14 K, 13085 kPa	981.6 kg/m3
323.14 K, 13108 kPa	981.6 kg/m3
323.14 K, 13136 kPa	981.6 kg/m3
323.14 K, 13163 kPa	981.7 kg/m3
323.14 K, 13448 kPa	981.9 kg/m3
323.14 K, 13476 kPa	981.9 kg/m3
323.14 K, 13500 kPa	982 kg/m3
323.14 K, 13529 kPa	981.8 kg/m3
323.14 K, 13553 kPa	981.9 kg/m3
323.14 K, 13581 kPa	982 kg/m3
323.14 K, 13609 kPa	981.9 kg/m3
323.14 K, 13633 kPa	982 kg/m3
323.14 K, 13661 kPa	982 kg/m3
323.14 K, 13684 kPa	982 kg/m3
323.14 K, 13711 kPa	982.1 kg/m3
323.14 K, 13739 kPa	982.1 kg/m3
323.14 K, 13763 kPa	982 kg/m3
323.14 K, 13791 kPa	982.1 kg/m3
323.14 K, 13814 kPa	982 kg/m3
323.14 K, 13841 kPa	982.2 kg/m3
323.14 K, 13868 kPa	982.2 kg/m3
323.14 K, 14047 kPa	982.2 kg/m3
323.14 K, 14070 kPa	982.3 kg/m3
323.14 K, 14098 kPa	982.2 kg/m3
323.14 K, 14122 kPa	982.3 kg/m3
323.14 K, 14149 kPa	982.4 kg/m3
323.14 K, 14177 kPa	982.3 kg/m3
323.14 K, 14200 kPa	982.3 kg/m3
323.14 K, 14229 kPa	982.4 kg/m3
323.14 K, 14257 kPa	982.3 kg/m3
323.14 K, 14281 kPa	982.5 kg/m3
323.14 K, 14309 kPa	982.5 kg/m3
323.14 K, 14333 kPa	982.4 kg/m3
323.14 K, 14362 kPa	982.5 kg/m3
323.14 K, 14385 kPa	982.3 kg/m3
323.14 K, 14412 kPa	982.5 kg/m3
323.14 K, 14435 kPa	982.6 kg/m3
323.14 K, 14462 kPa	982.5 kg/m3
323.14 K, 14491 kPa	982.5 kg/m3
323.14 K, 14542 kPa	982.6 kg/m3
323.14 K, 14860 kPa	982.8 kg/m3
323.14 K, 14888 kPa	982.8 kg/m3
323.14 K, 14912 kPa	982.7 kg/m3
323.14 K, 14941 kPa	982.8 kg/m3
323.14 K, 14965 kPa	982.8 kg/m3
323.14 K, 14994 kPa	982.8 kg/m3
323.14 K, 15019 kPa	982.8 kg/m3
323.14 K, 15047 kPa	982.8 kg/m3
323.14 K, 15070 kPa	982.8 kg/m3
323.14 K, 15098 kPa	983 kg/m3
323.14 K, 15126 kPa	982.9 kg/m3
323.14 K, 15150 kPa	982.9 kg/m3
323.14 K, 15177 kPa	983.1 kg/m3
323.14 K, 15205 kPa	983 kg/m3
323.14 K, 15229 kPa	983 kg/m3
323.14 K, 32387 kPa	993.4 kg/m3
323.14 K, 32388 kPa	993.7 kg/m3 and 993.6 kg/m3 and 993.5 kg/m3
323.14 K, 32389 kPa	993.5 kg/m3 and 993.6 kg/m3
323.14 K, 32390 kPa	993.5 kg/m3 and 993.6 kg/m3
323.14 K, 32391 kPa	993.5 kg/m3
323.14 K, 32392 kPa	993.6 kg/m3
323.14 K, 32393 kPa	993.5 kg/m3
323.14 K, 32394 kPa	993.5 kg/m3
323.14 K, 32395 kPa	993.5 kg/m3
323.14 K, 32396 kPa	993.5 kg/m3 and 993.6 kg/m3
323.14 K, 32398 kPa	993.5 kg/m3
323.14 K, 32399 kPa	993.5 kg/m3
323.14 K, 32400 kPa	993.6 kg/m3
323.14 K, 32401 kPa	993.6 kg/m3
323.14 K, 32402 kPa	993.4 kg/m3
323.14 K, 32403 kPa	993.5 kg/m3
323.14 K, 32404 kPa	993.5 kg/m3
323.15 K, 370.6 kPa	972.9 kg/m3
323.15 K, 372.9 kPa	972.9 kg/m3
323.15 K, 374.8 kPa	973 kg/m3
323.15 K, 377 kPa	972.9 kg/m3
323.15 K, 379.5 kPa	972.9 kg/m3
323.15 K, 381.7 kPa	973 kg/m3
323.15 K, 444.1 kPa	973 kg/m3
323.15 K, 447.6 kPa	973 kg/m3
323.15 K, 450.5 kPa	973 kg/m3
323.15 K, 453.3 kPa	973 kg/m3
323.15 K, 456.4 kPa	973.1 kg/m3
323.15 K, 460.3 kPa	973 kg/m3
323.15 K, 463.4 kPa	973 kg/m3
323.15 K, 466.7 kPa	973 kg/m3
323.15 K, 470.7 kPa	973 kg/m3
323.15 K, 473.8 kPa	972.9 kg/m3
323.15 K, 520.2 kPa	973 kg/m3
323.15 K, 524.4 kPa	973.1 kg/m3
323.15 K, 528.6 kPa	973.1 kg/m3
323.15 K, 532.7 kPa	973 kg/m3
323.15 K, 536.7 kPa	973 kg/m3
323.15 K, 542.1 kPa	973 kg/m3
323.15 K, 546.3 kPa	972.9 kg/m3
323.15 K, 551.3 kPa	973.1 kg/m3
323.15 K, 555.7 kPa	973.2 kg/m3
323.15 K, 560.2 kPa	973.1 kg/m3
323.15 K, 564.7 kPa	973 kg/m3
323.15 K, 567.1 kPa	973 kg/m3
323.15 K, 567.3 kPa	973.1 kg/m3
323.15 K, 568.2 kPa	973 kg/m3
323.15 K, 569.7 kPa	973.1 kg/m3
323.15 K, 571.8 kPa	973.1 kg/m3
323.15 K, 573.7 kPa	973.1 kg/m3
323.15 K, 575.6 kPa	973.1 kg/m3
323.15 K, 592.7 kPa	973.1 kg/m3
323.15 K, 594.8 kPa	973.2 kg/m3
323.15 K, 596.6 kPa	973.1 kg/m3
323.15 K, 598.6 kPa	973.1 kg/m3
323.15 K, 601.2 kPa	973 kg/m3
323.15 K, 603.4 kPa	973 kg/m3
323.15 K, 605.2 kPa	973.1 kg/m3
323.15 K, 607.4 kPa	973.1 kg/m3
323.15 K, 609.9 kPa	973 kg/m3
323.15 K, 612 kPa	973.1 kg/m3
323.15 K, 614 kPa	973.1 kg/m3

Reference: the NIST ThermoML archive (doi:10.1021/je060271a)
